The values that follow come from PubChem BioAssay (NCI).

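96-well plates; 48 h exposure; 5 concentrations. Endpoints by linear interpolation between flanking doses. Not reached: highest tested concentration assigned. GI50 = concentration required for 50% inhibition of growth. At the TGI there is no net growth.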 Bounds are passed on as bounds.

Some test systems named below: A498 renal; ACHN renal; HOP-92 NSCLC; HT29 colon; K-562 leukemia; NCI-H226 lung; NCI-H23 lung; NCI-H522 lung; UACC-257 melanoma; UO-31 renal.
Common to all, as to test: NCI-60 cell line screen, 48 h

`Cc1cc(Nc2ccc(OCc3ccccc3)cc2)nc2cc(O)ccc12`: the GI50 in the test with A498 renal was 13000 nM; in the test with ACHN renal, 3410 nM; in the test on HOP-92 NSCLC, 2010 nM; in the test on HT29 colon, 3860 nM; in the test with K-562 leukemia, 1090 nM; with NCI-H226 lung, 3490 nM. Moreover, the GI50 with NCI-H23 lung is 6910 nM; in the test with NCI-H522 lung, 3010 nM; in the test with UACC-257 melanoma, 3490 nM; in the test with UO-31 renal, 2040 nM. Also, the TGI was determined as 27000 nM with A498 renal; 13300 nM in the test with ACHN renal; 6260 nM in the test on HOP-92 NSCLC; 14900 nM in the test on HT29 colon; 14900 nM in the test with K-562 leukemia; 17600 nM in the test with NCI-H226 lung. The TGI in the test with NCI-H23 lung stood at 21500 nM; with NCI-H522 lung it was 12100 nM; in the test on UACC-257 melanoma, 13500 nM; in the test on UO-31 renal, 6580 nM.

For `CCCCCCCC/C=C/CCCCCCCC1=NC(C)(C)CN1CC(C)O` (configuration not stated), the GI50 was 935 nM in the test on A498 renal; 1830 nM with ACHN renal; 1210 nM in the test on HOP-92 NSCLC; 1590 nM in the test on HT29 colon; 1440 nM with K-562 leukemia; 6250 nM in the test on NCI-H226 lung. Also, the GI50 was 3110 nM with NCI-H23 lung, 1920 nM in the test with NCI-H522 lung, 1850 nM in the test with UACC-257 melanoma and 1630 nM in the test on UO-31 renal. The TGI with A498 renal amounted to 17000 nM; in the test with ACHN renal, 3550 nM; in the test with HOP-92 NSCLC, 5580 nM; in the test with HT29 colon, 3090 nM; with K-562 leukemia it was 3270 nM; in the test on NCI-H226 lung, 23700 nM. For the same compound, the TGI with NCI-H23 lung was 7990 nM; in the test on NCI-H522 lung, 4330 nM; with UACC-257 melanoma it was 3540 nM; in the test with UO-31 renal, 4190 nM.

Regarding `CC1=Nc2ccccc2NC(c2ccoc2)C1` (configuration not stated), the TGI in the test on A498 renal, in the test with ACHN renal, with HOP-92 NSCLC, with HT29 colon, in the test with K-562 leukemia and in the test with NCI-H226 lung was above 100000 nM in each case. Moreover, the TGI in the test on NCI-H23 lung, in the test with NCI-H522 lung, in the test with UACC-257 melanoma and in the test with UO-31 renal was above 100000 nM in each case.

As to `c1ccc([CH2][Sn]([CH2]c2ccccc2)([O]c2cccc3cccnc23)[O]c2cccc3cccnc23)cc1`, the GI50 is 429 nM in the test with A498 renal; 1030 nM with ACHN renal; 1190 nM with HOP-92 NSCLC; 139 nM in the test with HT29 colon; 1380 nM with NCI-H226 lung; 508 nM with NCI-H23 lung. Besides, the GI50 with NCI-H522 lung was 186 nM; in the test with UACC-257 melanoma, 302 nM; in the test with UO-31 renal, 363 nM. Also, the TGI was determined as 692 nM in the test on A498 renal; 2200 nM with ACHN renal; 2460 nM with HOP-92 NSCLC; 361 nM in the test with HT29 colon; 2850 nM in the test with NCI-H226 lung; 1840 nM in the test on NCI-H23 lung. The results for the TGI in the test with NCI-H522 lung, in the test on UACC-257 melanoma and in the test with UO-31 renal were 351 nM, 836 nM and 1390 nM, respectively.

For `CC[C@H]1CN2CCc3cc(OC)c(OC)cc3C2C[C@@H]1CC1NCCc2cc(OC)c(OC)cc21` (some centres not stated), the TGI in the test with A498 renal was 313 nM; in the test on ACHN renal it was 1420 nM; with HOP-92 NSCLC it was 46.4 nM; in the test with HT29 colon, 47.9 nM; in the test with K-562 leukemia it was 77.9 nM; in the test on NCI-H226 lung, 194 nM. Moreover, the figures for the TGI in the test with NCI-H23 lung, in the test on NCI-H522 lung and with UACC-257 melanoma were 91.6 nM, 35.4 nM and 258 nM, respectively. The GI50 is 13.7 nM with K-562 leukemia and 12.7 nM in the test on NCI-H522 lung.

On to `Cc1cc([N+](=O)[O-])ccc1Sc1c2ccccc2nc2cc(Cl)ccc12`, for which the TGI in the test with A498 renal was above 100000 nM; in the test on ACHN renal it was above 100000 nM; in the test with HOP-92 NSCLC, 76600 nM; in the test on K-562 leukemia, above 100000 nM; with NCI-H226 lung it was above 100000 nM; in the test with NCI-H23 lung it was 76900 nM. Further, the values for the TGI with NCI-H522 lung, in the test on UACC-257 melanoma and in the test with UO-31 renal were 78700 nM, above 100000 nM and above 100000 nM, respectively.

`O=C1/C(=N\O)c2ccccc2S1(=O)=O`: the TGI in the test with A498 renal, in the test with ACHN renal, in the test on HOP-92 NSCLC, with HT29 colon, in the test on K-562 leukemia and in the test with NCI-H226 lung was above 100000 nM each time. The TGI with NCI-H522 lung, in the test on UACC-257 melanoma and with UO-31 renal was above 100000 nM each time.

Take `COC1=CC(c2ccc[nH]2)=N/C1=C\c1[nH]c(C)c(CC(=O)OCc2ccccc2)c1CCC(=O)OCc1ccccc1`: the GI50 with A498 renal is 288 nM; in the test with ACHN renal it was 333 nM; in the test with HOP-92 NSCLC, 231 nM; with HT29 colon it was 287 nM; in the test with NCI-H226 lung, 335 nM; in the test on NCI-H23 lung, 546 nM. The figures for the GI50 with NCI-H522 lung, in the test with UACC-257 melanoma and in the test on UO-31 renal were 302 nM, 721 nM and 210 nM, respectively. Moreover, the TGI in the test on A498 renal was found to be 2420 nM; with ACHN renal it was 1020 nM; in the test with HOP-92 NSCLC, 809 nM; with HT29 colon, 2500 nM; with NCI-H226 lung, 2300 nM; in the test on NCI-H23 lung it was 4450 nM. The TGI stood at 1850 nM in the test on NCI-H522 lung, 3100 nM with UACC-257 melanoma and 577 nM in the test with UO-31 renal.

Take `CCN(CC)CC(C)(C)C(=O)/C=C/c1cccc(/C=C/C(=O)C(C)(C)CN(CC)CC)c1`: the TGI in the test with A498 renal is 2710 nM; in the test on ACHN renal, 2380 nM; with HOP-92 NSCLC it was 1680 nM; in the test on HT29 colon it was 1080 nM; with K-562 leukemia, above 100000 nM; with NCI-H226 lung it was 3380 nM. Further, the TGI with NCI-H23 lung is 2700 nM; in the test with UACC-257 melanoma it was 2660 nM; in the test with UO-31 renal it was 3170 nM.

In the case of `NC1=CC(=O)c2cccnc2C1=O`, the GI50 in the test with A498 renal is 10100 nM; in the test with ACHN renal, 1290 nM; in the test on HOP-92 NSCLC it was 1710 nM; with HT29 colon it was 3480 nM; with NCI-H226 lung it was 7610 nM; in the test with NCI-H23 lung, 1340 nM. The GI50 was 533 nM in the test on NCI-H522 lung, 1540 nM with UACC-257 melanoma and 1170 nM in the test on UO-31 renal. Further, the TGI worked out at 23300 nM in the test with A498 renal; 2750 nM with ACHN renal; 3390 nM in the test with HOP-92 NSCLC; 14600 nM in the test with HT29 colon; 27700 nM in the test on NCI-H226 lung; 4140 nM in the test with NCI-H23 lung. Further, the TGI in the test on NCI-H522 lung came to 2170 nM; in the test on UACC-257 melanoma, 2900 nM; in the test with UO-31 renal it was 2500 nM.
